A short description of data set [1]: NDMA carcinogenicity / acceptable intake from CPDB toxicological data (TD50 linear extrapolation, rodent carcinogenicity data). It counts as in vivo. The note with it: 0.0959 μg÷300 mg. On the procedure:
According to the toxicological data in the FDA according to the Carcinogenic Potency Database (CPDB database), the NDMA acceptable daily intake is set at about 0.096 μg. On Sep. 13, 2019, the FDA released a safety warning that some Ranitidine-based drugs (including the brand-name drug Zantac) contain the impurity of N-nitrosodimethylamine (NDMA). Subsequently, China launched special inspections and testing on NDMA for this variety.

For data set [2] the following is noted: cited from earlier work.
The conditions of data set [3]: cited from earlier work. This is another data set of the same source.

The text below walks through data of patent publication US12601718B2, “Method for pretreating ranitidine hydrochloride sample” (Hunan Institute for Drug Inspection and Testing, priority 2022, dated 2026).

Structures are written as SMILES.

On to `CN(C)N=O` [NDMA, N-nitrosodimethylamine], for which, in data set [1], the “limit value of the impurity NDMA in Ranitidine hydrochloride capsules” value is listed as “≈ 320 ng/g”. Further, in data set [2], the solubility in dichloromethane entry was “almost insoluble” and the solubility in water result is given as “readily soluble”. For the same molecule, the “NDMA acceptable daily intake” value in data set [3] (FDA, according to CPDB database) was “about 0.096 μg”. The carcinogen class entry in data set [3] (in vivo) was “class-2A carcinogen”.

In the case of `CNC(=C[N+](=O)[O-])NCCSCc1ccc(CN(C)C)o1` [Ranitidine], in data set [2], the solubility in dichloromethane entry was “almost insoluble” and the solubility in water entry is given as “readily soluble”.
